Measurements taken from patent US20260248918A1, “COMPOSITIONS AND METHODS OF SUPPRESSING AVERSIVENESS OF PHARMACEUTICALS AND INGESTIBLE MATERIALS” (Monell Chemical Senses Center, priority 2019, published 2026).
Entries after “also recorded” stand apart in the source; their conditions may differ. Where two headings read alike, the source gives them in different places.

Columns and labels:
[1] = system: Benzodiazepine receptor (gamma-aminobutyric acid receptor subunit); details: rat cortical membranes; cited from earlier work
TAS2R39 = biological target: T1, TAS2R39 (Homo sapiens, UniProt P59534); test: Blocking of TAS2R39 activity (HEK/TAS2R39) stimulated by Piperaquine or Tenofovir; format: cell-based; design: expressed in transfected cells; host or cells: HEK; details: 0.1 mM blocker
T1 sequence (P59534 1-338): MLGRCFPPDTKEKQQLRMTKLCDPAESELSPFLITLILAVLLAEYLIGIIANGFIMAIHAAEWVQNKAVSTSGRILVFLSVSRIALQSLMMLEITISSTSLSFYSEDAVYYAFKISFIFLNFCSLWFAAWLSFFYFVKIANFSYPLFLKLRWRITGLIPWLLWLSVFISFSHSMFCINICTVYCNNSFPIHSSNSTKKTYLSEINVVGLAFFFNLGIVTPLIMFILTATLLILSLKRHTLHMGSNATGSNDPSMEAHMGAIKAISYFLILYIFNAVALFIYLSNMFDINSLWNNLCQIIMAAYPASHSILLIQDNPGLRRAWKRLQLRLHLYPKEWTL
Experimental: FIG. 5A is a bar graph showing that the blocker 6-methylflavone (indicated by the arrow number 2) blocks the activity of taste receptor TAS2R39 to Piperaquine. Other blockers are unidentified compounds identified by the numbers following the concentrations under the X axis. Five candidates from the HTS screen blocked the activity of TAS2R39 to Piperaquine.
FIG. 5B is a graph plotting the activity of taste receptor HEK/TAS2R39 in the presence of 0.5 mM Piperaquine (bold black line); the combination of 0.5 mM Piperaquine and 0.1 mM of 6-methylflavone (light gray line), and a control with 0.1 mM of the blocker 6-methylflavone (dotted line).
Other blockers are identified by the numbers following the concentrations under the X axis.
FIG. 7B is a graph plotting the activity of taste receptor TAS2R39 in the presence of 1 mM Tenofovir (bold black line); the combination of 1 mM Tenovir and 0.1 mM of 6-methylflavone (light gray line), and a control with 0.1 mM of the blocker 6-methylflavone (dotted line).

human subjects = test: Human sensory testing (gLMS) of API bitterness with blocker, as pre-rinse or admixture; format: in vivo
Source text: Methods of evaluating the sensory properties of the API and admixtures with the blocker compounds of Formula A are adopted from Breslin PA, and Tharp CD, “Reduction of saltiness and bitterness after a chlorhexidine rinse,” Chem Senses. 2001 February; 26(2):105-16. More details are illustrated below.
Subjects participate in the study after providing informed consent. Gender of the subjects is balanced between male and female. The subjects are adults with ages ranging from 20 years old to 50 years old. […] The participants are asked to refrain from eating, drinking, or chewing gum for 1 hr prior to testing. Subjects are trained to use the General Labeled Magnitude Scale (gLMS) following standard published procedures. See. e.g., Breslin P A, and Tharp C D. “Reduction of saltiness and bitterness after a chlorhexidine rinse,” Chem Senses. 2001 February; 26(2): 105-16; Keast and Breslin, “Bitterness suppression with zinc sulfate and Na-cyclamate: a model of combined peripheral and central neural approaches to flavor modification.” Pharm Res. 2005 November; 22(11):1970-7. Epub 2005 Aug. 26; Green et al, “Evaluating the ‘Labeled Magnitude Scale’ for measuring sensations of taste and smell.” Chem Senses. 1996 June; 21(3):323-34; Barry G. Green, et al, “Derivation and evaluation of a semantic scale of oral sensation magnitude with apparent ratio properties,” Chemical Senses, Volume 18, Issue 6, 1 Dec. 1993, Pages 683-702; and Bartoshuk L M, “Comparing sensory experiences across individuals: recent psychophysical advances illuminate genetic variation in taste perception.” Chem Senses. 2000 August; 25(4):447-60.
The selected API (in racemic or L form as applicable) is diluted/dissolved in deionized (di) filtered water upon use into various concentrations. […] The API is prepared and dissolved in deionized filtered water or in […] 6-methylflavone to a final concentration. All solutions are stored on ice or at 4° C. to 8° C. and brought up to room temperature prior to testing.
The following testing protocol is performed. The tested solutions are provided to the subjects in random order. Subjects rinsed with di water at least four times over a 2-minute period prior to tasting each solution. The subjects are instructed to wear nose clips to eliminate olfactory input, pour the whole solution in their mouth for 3-5 seconds, and rate the perceived sensation (including bitterness, sourness, astringency, burning, stinging and nausea) intensity of the solution while it remained in the mouth, prior to expectorating. Taste intensity is recorded on a computerized gLMS, analyzed and plotted.

[2] = system: Gamma-aminobutyric acid A receptor alpha; details: in vitro; cited from earlier work
hTBEC cells = test: hTBEC bioassay: antagonism of bitter-drug stimulation of human taste bud cells; format: cell-based; details: for IC50: Homo sapiens; for % maximum inhibition: at 50 μM antagonist
Experimental: FIGS. 12A and 12B show concentration-response curves or relationships (CRCs) for antagonism of TAF or piperaquine stimulation of hTBEC cells with an optimal concentration of each bitter-tasting medicine in vitro. Each inhibition curve was fitted to the data so as to calculate an IC50 or the concentration that inhibits 50% of the signal. A Hill slope was calculated, along with the % maximal inhibition and the concentration of antagonist, 6-methylflavone, (indicated by the ref ST069348) required to fully block the response in the assay. These metrics were slightly different for antagonism by 6 -methylflavone of TAF versus piperaquine. FIG. 12A is a graph showing the suppression of human taste bud cells (hTBEC) cells with 6-methylflavone added to 300 micromolar TAF stimulated cells. […] FIG. 12B is a graph showing the suppression of hTBEC cells with 6-methylflavone added to 100 micromolar Piperaquine stimulated cells. IC50 is 2.0 μM for 6-methylflavone antagonism of Piperaquine stimulation.
Using a primary hTBEC platform, a high throughput screening (HTS) was conducted with more than 2,000 small molecular weight purified phytochemicals and botanical extracts. The screen identified 40 antagonists that suppressed taste cell activation by target APIs. […] TAS2R1 is responsive to piperaquine and tenofovir. (See FIG. 4)

Cc1ccc2oc(-c3ccccc3)cc(=O)c2c1 [6-methylflavone]
In vitro affinity against Benzodiazepine receptor binding [1]: active | Inhibition of TAS2R39 activity to Piperaquine (TAS2R39; 0.5 mM Piperaquine, FIG. 5A/5B): powerful antagonist; also recorded: strong inhibition | Inhibition of TAS2R39 activity in response to Tenofovir (TAF) (TAS2R39; 1 mM Tenofovir, FIG. 7A/7B): powerful antagonist; also recorded: completely inhibited | Blocking the bitter taste of piperaquine and TAF (human subjects; admixture, subset of human subjects): effective antagonist | Suppression of TAF bitterness (human subjects; another subject, FIGS. 11A/11B, 0.5 mg/mL TAF, pre-rinse then admixture, blocker 100 μM): worked | Suppression of TAF bitterness (human subjects; another subject, FIGS. 11A/11B, 0.5 mg/mL TAF, pre-rinse then admixture, blocker 1 mM): worked even better | Suppression of TAF bitterness (human subjects; one subject, FIGS. 8A/8B, 0.5 mg/mL TAF with and without 100 μM blocker): significant suppression | Suppression of TAF bitterness (human subjects; one subject, FIGS. 9A/9B, 0.5 mg/mL TAF alone vs pre-rinse vs pre-rinse containing 100 μM blocker): did not show significant suppression | Suppression of TAF bitterness (human subjects; one subject, FIGS. 10A/10B, 0.5 mg/mL TAF, pre-rinse then admixture, blocker 100 μM): no bitterness suppression | Average perceived bitterness intensity of piperaquine (human subjects; piperaquine 8 mg/mL treated with 100 μM blocker, FIG. 6): affected | Blocking effect for TAF and piperaquine with added pre-rinse (human subjects; pre-rinse with the blocker added, compared with admixture alone): stronger | Inhibition of [3H]-Ro-15-1788 binding [2]: has the ability to inhibit | IC50 (hTBEC cells; hTBEC cells stimulated with 100 micromolar Piperaquine, FIG. 12B, read-out: IC50 for antagonism of Piperaquine stimulation): 2 µM | IC50 (hTBEC cells; hTBEC cells stimulated with 300 micromolar TAF, FIG. 12A, read-out: IC50 for antagonism of TAF stimulation): 7.7 µM | % maximum inhibition (hTBEC cells; 100 micromolar Piperaquine stimulated hTBEC cells, FIG. 12B): > 95% | % maximum inhibition (hTBEC cells; 300 micromolar TAF stimulated hTBEC cells, FIG. 12A): > 95% | Hill slope (hTBEC cells; hTBEC cells stimulated with 100 micromolar Piperaquine, FIG. 12B): 1.992 | Hill slope (hTBEC cells; hTBEC cells stimulated with 300 micromolar TAF, FIG. 12A): 2.18 | Blocking the stimulation of hTBEC cells by bitter tasting drugs (hTBEC cells; stimulated by TAF, racemic praziquantel and piperaquine): quite potent and effective
